# Source: patent publication US20240425574A1, “ANTI-PDGF-B ANTIBODIES AND PHARMACEUTICAL COMPOSITION THEREOF” (Regeneron Pharmaceuticals, Inc., priority 2021, published 2024)
# Like-named read-outs stand apart in the source and are kept apart here. Marks after values point to notes of the source that are not given here.
# How the values were obtained:
# Human PDGF-AA = assay: FLIPR calcium flux in PASMC (Example 17); type: cell-based; settings: 3 nM PDGF-AA constant
# Description: (§1) Upon reaching 100% confluency within each well, PDGF driven calcium flux was assessed via the FLIPR® Calcium 5 Assay Kit on the FLIPR Tetra System (Molecular Devices) following the manufacturer's protocol. In brief, complete media was replaced with 50 μL assay media (DMEM-0.1% BSA-1× Penicillin/Streptomycin/L-Glutamine). The Calcium 5 dye was then reconstituted in the supplied buffer in the presence of probenecid. […] Human PDGF-AA, PDGF-BB and PDGF-DD serial dilutions and inhibitory constants were generated on separate dosing plates. A 0.5 nM concentration of PDGF-BB, 1 nM concentration of PDGF-DD and a 3 nM concentration of PDGF-AA were chosen as constants to assess antibody and small molecule inhibition. […] Antibodies were pre-incubated with PDGF proteins for 30 minutes before addition onto the cells via the FLIPR tetra system. […] These calcium traces were analyzed for their Max-Min values using the SoftMax Pro Software (Molecular Devices).
# hypoxia/sugen PAH mice [1] = assay: Hypoxia/Sugen PAH mice, therapeutic treatment (Study 1); type: in vivo, mouse; settings: dose mg/kg: H4H13145P 25, Macitentan 30, REGN2176 25
# Description: For the first study, 14 to 16 weeks old male humanized PDGFRβ^hu-hu mice, (MAID #1639) were used. Mice were separated into treatment groups by weight such that starting body weights were similar among different groups. […] Mice in hypoxia chamber were given VEGF receptor inhibitor Sugen5146 at 20 mg/kg subcutaneously once a week for 6 weeks. The mice were administered antibodies starting on day 21 for 3 weeks as outlined in Table 11. […] Mice were anesthetized with isoflurane and were kept at approximately 37° C. using a heated platform (Heated Hard Pad 1, Braintree Scientific) and circulating heated water pump (T/Pump Classic, Gaymar Industries). The neck area for each mouse was prepared for surgery by depilating over the right common Carotid artery and right Jugular vein. An incision was made, and the right Jugular vein was isolated with care as to not damage the Carotid artery and/or the Vagus nerve. […] The catheter was connected to pressure/volume instrument (MPVS-300, Millar Instruments, Inc.) that measured heart rate as well as both diastolic and systolic right ventricular pressures. […] The parameters analyzed were right ventricular systolic pressures (RVSP), heart rate (HR) and rate of right ventricular pressure rise (dP/dt max). […] RV hypertrophy was calculated by Fulton index as the weight ratio of RV and (LV+septum). […]
# hypoxia/sugen PAH mice [2] = type: in vivo, mouse; settings: Hypoxia/Sugen Mice - Therapeutic dose response; dose mg/kg: H4H13145P 1, Macitentan 30, REGN2176 25
# Description: For the second study (Study 2), 12 to 14 weeks old male C57/BL mice, (Taconic) were used for the studies. Mice were separated into treatment groups by weight such that starting body weights were similar among different groups. […] Mice in hypoxia chamber were given VEGF receptor inhibitor Sugen5146 at 20 mg/kg subcutaneously once a week for 6 weeks. The mice were administered antibodies starting on day 21 for 3 weeks as outlined in Table 12. By the end of week 6, right ventricular systolic pressure (RVSP) was measured by right heart catheterization and RV hypertrophy was calculated by Fulton index as the weight ratio of RV and (LV+septum). […]
# Mice were anesthetized with isoflurane and were kept at approximately 37° C. using a heated platform (Heated Hard Pad 1, Braintree Scientific) and circulating heated water pump (T/Pump Classic, Gaymar Industries). […] The catheter was connected to pressure/volume instrument (MPVS-300, Millar Instruments, Inc.) that measured heart rate as well as both diastolic and systolic right ventricular pressures. […] Readings were quantified from a 60 second interval of the pressure tracing (following a 2 minute period of recording to allow for pressure stabilization). The parameters analyzed were right ventricular systolic pressures (RVSP), heart rate (HR) and rate of right ventricular pressure rise (dP/dt max). […]
# monocrotaline rats [3] = assay: 4 weeks Monocrotaline PAH rats, preventive treatment (Example 10 study 1); type: in vivo, rat
# Description: Six to seven weeks old male Sprague Dawley rats were used. Rats were separated into treatment groups such that body weights were similar among different groups. […] Standard of care group was orally administered macitentan at 30 mg/kg daily for 28 days. At day one, rats were subcutaneously administered either 40 mg/kg of monocrotaline or 5 mL/kg of saline. By the end of day 28, right ventricular systolic pressure (RVSP) was measured by right heart catheterization and RV hypertrophy was calculated by Fulton index as the weight ratio of RV and (LV+septum). In study 2, rats were subcutaneously administered either 60 mg/kg of monocrotaline or 5 mL/kg of saline. […] Body weight change from day 0-35 were used for general toxicity assessment and animal mortality was calculated by day 35.
# Rats were anesthetized with isoflurane and were kept at approximately 37° C. using a heated platform (Heated Hard Pad 1, Braintree Scientific) and circulating heated water pump (T/Pump Classic, Gaymar Industries). The neck area for each rat was prepared for surgery by depilating over the right common Carotid artery and right Jugular vein. An incision was made and the right Jugular vein was isolated with care as to not damage the Carotid artery and/or the Vagus nerve. A piece of 5-0 silk suture was placed under the isolated Jugular vein to allow for retraction of the vessel cranially, then a 23-gauge needle was used to introduce a hole into the Jugular vein. A pressure catheter (Micro-tip catheter transducer SPR-1000, Millar Instruments, Inc.) was inserted into the opening of the Jugular vein and advanced past the right atrium into the right ventricle. The catheter was connected to pressure/volume instrument (MPVS-300, Millar Instruments, Inc.) that measured heart rate as well as both diastolic and systolic right ventricular pressures. These parameters were digitally acquired using a data acquisition system (PowerLab 4/35, AD Instruments). LabChart Pro 7.0 software (AD Instruments) was used to analyze right ventricular pressures. Readings were quantified from a 60 second interval of the pressure tracing (following a 2 minute period of recording to allow for pressure stabilization). The parameters analyzed were right ventricular systolic pressures (RVSP), heart rate (HR) and rate of right ventricular pressure rise (dP/dt max).
# After the in vivo hemodynamic measurements, animals were euthanized by exsanguinations under anesthesia and then RV free wall, left ventricle (LV) and septum tissue were harvested and weighted. RV hypertrophy was calculated by Fulton index as the weight ratio of RV and (LV+septum). Then, RV tissue was saved frozen (−80° C.) for biochemical analyses.
# monocrotaline rats [4] = assay: Study #2, 5 weeks Monocrotaline severe PAH rats survival (Example 19); type: in vivo, rat
# Description: In order to evaluate the effect of two inhibitory anti-PDGF-B antibodies in the rat monocrotaline model of pulmonary arterial hypertension, 2 studies were performed: study #1 was performed on 4-week Monocrotaline PAH Rats with Preventive Drug Treatment; and study #2 was performed on 5-weeks Monocrotaline Severe PAH Rats Survival with Therapeutic Drug Treatment (Tables 26-27).
# Six to seven weeks old male Sprague Dawley rats were used. Rats were separated into treatment groups such that body weights were similar among different groups. […] On day one, rats were subcutaneously administered either 40 mg/kg of monocrotaline or 5 mL/kg or saline as control. On day 28, right ventricular systolic pressure (RVSP) was measured by right heart catheterization and RV hypertrophy was calculated by Fulton index as the weight ratio of RV to (LV+septum). In study #2, rats were subcutaneously administered either 60 mg/kg of monocrotaline or 5 mL/kg of saline. […] Small molecule group was orally administered macitentan at 30 mg/kg daily. Body weight change from day 0-35 were used for general toxicity assessment and animal mortality and median survival time were calculated by day 35.
# Human PDGF-DD = settings: read-out: IC50 Calcium Flux, PDGF-DD; PASMC; 1 nM PDGF-DD constant
# Description: as §1
# PDGF-AA = settings: read-out: IC50 Proliferation, PDGF-AA; PASMC; IncuCyte cell confluence at day 6
# Description: (§2) For calcium flux and proliferation assays, primary Human Pulmonary Smooth Muscle Cells were seeded onto 96-well assay plates at a cell density of 10,000/well and 2,000/well respectively. The smooth muscle cells were cultured in supplier recommended smooth muscle media in a humidified incubator at 37° C. in 5% CO2.
# (§3) Proliferation was assessed via the IncuCyte live cell imaging system (Essen BioScience). Following overnight plating, the complete media was replaced with serum free smooth muscle media supplemented with 0.1% BSA. […] Plates were imaged every 3 hours over the course of 7 days and proliferation was determined by measuring cell confluence in the well at day 6 via the IncuCyte Base Analysis software (Sartorius).
# PDGF-DD = settings: read-out: IC50 Proliferation, PDGF-DD; PASMC; IncuCyte cell confluence at day 6
# Description: as §2, §3
# PDGF-BB [5] = target: T1, PDGF-BB (Homo sapiens, UniProt P01127); assay: FLIPR calcium flux in PASMC (Example 17); type: cell-based; design: purchased R&D Systems 220-GMP
# T1 sequence (P01127 82-190 limits assumed): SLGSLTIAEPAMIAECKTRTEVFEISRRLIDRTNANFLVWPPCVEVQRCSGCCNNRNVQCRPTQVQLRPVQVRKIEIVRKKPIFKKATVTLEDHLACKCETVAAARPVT
# Description: as §1
# PDGF-BB [6] = target: T1, PDGF-BB; assay: IncuCyte proliferation of PASMC (Example 17); type: cell-based; design: purchased R&D Systems 220-GMP; settings: IncuCyte cell confluence at day 6
# Description: as §2, §3
# [7] = Monocrotaline Rat - Prevention, dose mg/kg: H4H13145P 25, Macitentan 30, Sotatercept 25
# [8] = MCT 60 mg/kg rats, treatment from day 14, antibody SC twice per week, Macitentan 30 mg/kg daily gavage
compound,measurement,setting,value
Cc1ccc(NC(=O)c2ccc(CN3CCN(C)CC3)cc2)cc1Nc1nccc(-c2cccnc2)n1 [Imatinib],IC50,Human PDGF-AA,270 nM
"CCCNS(=O)(=O)Nc1ncnc(OCCOc2ncc(Br)cn2)c1-c1ccc(Br)cc1 [Macitentan, reference compound]",% reduction in RV hypertrophy,hypoxia/sugen PAH mice [1],trend
same,Reduction in RVSP,hypoxia/sugen PAH mice [1],19-25 mmHg
same,% reduction in RV hypertrophy,hypoxia/sugen PAH mice [2],trend
same,Reduction in RVSP,hypoxia/sugen PAH mice [2],19-25 mmHg
same,% reduction in RV hypertrophy,monocrotaline rats [3]; [7],trend
same,lessening of right ventricular hypertrophy (Fulton Index),"monocrotaline rats [3]; monocrotaline 40 mg/kg, antibody 25 mg/kg SC 2x/week, Macitentan 30 mg/kg P.O. daily, versus isotype control",failed to reduce
same,right ventricular systolic pressure elevation,"monocrotaline rats [3]; monocrotaline 40 mg/kg, antibody 25 mg/kg SC 2x/week, Macitentan 30 mg/kg P.O. daily, week 4",significantly reduced
same,Death # by day 35,monocrotaline rats [4]; [8],11
same,Survival rate by day 35,monocrotaline rats [4]; [8],0%*
same,median survival,monocrotaline rats [4]; [8],20 days
same,survival,"monocrotaline rats [4]; monocrotaline 60 mg/kg, antibody 25 mg/kg 2 times a week from day 14, macitentan 30 mg/kg daily, day 35",failed to prolong survival
COc1ccc(-c2cncc(N[C@@H](C)c3cccc(NC(=O)c4cncc(C)c4)c3)n2)cc1OC [Seralutinib],IC50,Human PDGF-AA,10 nM
same,IC50,Human PDGF-DD,27 nM
same,IC50,PDGF-AA,9 nM
same,IC50,PDGF-DD,6 nM
same,IC50,"PDGF-BB [5]; PASMC, 0.5 nM PDGF-BB constant, read-out: IC50 Calcium Flux, PDGF-BB",10 nM
same,inhibition in words,"PDGF-BB [5]; PDGF-AA, PDGF-DD and PDGF-BB driven calcium flux and proliferation",fully inhibited
same,IC50,"PDGF-BB [5]; range over PDGF-AA, PDGF-DD, PDGF-BB driven calcium flux and proliferation, read-out: IC50 values",6 to 27 nM
same,IC50,PDGF-BB [6],6 nM
"Sotatercept: ACVRIIa-Fc, vessel remodeling comparator drug",Reduction in RVSP,monocrotaline rats [3]; [7],14 mmHg
